Values of other authors, collected in patent publication US8846662B2, “Benzodiazepine and/or pharmaceutical composition comprising benzodiazepine derivatives” (Dr. Franz Koehler Chemie GmbH, priority 2008, dated 2014).

System: specific binding sites in the central nervous system
Settings: background statement

## O=C1Nc2ccc(Cl)cc2C(c2ccccc2Cl)=NC1O (centres unmarked) [Lorazepam, 7-chloro-5-(o-chlorophenyl)-1,3-dihydro-3-hydroxy-2H-1,4-benzodiazepin-2-one]
  Affinity for specific binding sites in the central nervous system: very high affinity

## CN1C(=O)C(O)N=C(c2ccccc2Cl)c2cc(Cl)ccc21 (centres unmarked) [Lormetazepam, 9-chloro-6-(2-chlorophenyl)-4-hydroxy-2-methyl-2,5-diazabicyclo-[5.4.0]undeca-5,8,10,12-tetraen-3-one]
  Affinity for specific binding sites in the central nervous system: very high affinity
